Each structure is given as a SMILES string.

Data on one molecule can be found in patent US20250066736A1, “HIGH-THROUGHPUT 3D CELL SPHEROID CULTURE CHIP, PREPARATION PROCESS AND USES THEREOF” (National Taiwan University, priority 2023, published 2025).

The data set relates to hepatocytes. As to the kind of experiment: In vitro liver fibrosis/toxicity model: relative cell viability of hepatocytes with CCl4-induced injury. To be noted: for relative cell viability: 24 h (day 1). The data set is classed as cell-based, Sprague Dawley rats. As to the method:
The procedure regarding in vitro liver fibrosis model is as follows. To create an in vitro toxicity model, we used CCl4 as a known hepatotoxic agent capable of inducing severe hepatotoxicity, ultimately leading to liver fibrosis. Initially, a stock solution of CCl4 was prepared by dissolving it in DMSO to a concentration of 20%. Subsequently, hepatocytes were aliquoted into 15-mL centrifuge tubes. These hepatocytes were subjected to a 10-min toxication process with CCl4 (0.05, 0.075, 0.1, 0.15, 0.2%)-containing culture medium (serum-free). Subsequently, hepatocytes were washed three times with PBS with centrifugation at 50×g for 1 min at 4° C. Thereafter, the supernatant was carefully removed, and the final cell pellet was seeded onto 0.1 mg/mL collagen-coated Petri dish at a density of 5×10^5 cells/mL.
The procedure regarding relative cell viability and liver-specific function of in vitro HUVEC-covered hepatocyte spheroids embedded in gel cultures is as follows. To assess relative cell viability, separate media formulations were used for 2D dish and 3D gel cultures. Specifically, 10% MTT-containing medium was used for the 2D dish culture, whereas 10% CCK8-containing medium was used for evaluating the cell viability in 3D hydrogel or spheroids. For MTT analysis, after 4-h incubation, half of the supernatant was removed from each well, and an equivalent volume of DMSO was added. Following an additional 10 min of incubation, absorbance was measured at 570 nm. For CCK8 analysis, after 4 h of incubation, 100 μL of the supernatant was transferred to a 96-well plate, and absorbance was measured at 450 nm. To calculate relative cell viability from days 1 to 14, the absorbance value of hepatocytes (or hepatocyte spheroids) in the control group (only gel without cells) measured on day 1 was used as baseline (blank) to exclude the influence of the gel. The absorbance value of each experimental condition was then divided by the value of the blank to obtain relative cell viability.

`ClC(Cl)(Cl)Cl` [CCl4, Carbon tetrachloride]: the relative cell viability reads like this: (CCl4 concentration 0.05%) 60.53%±3.19%; (CCl4 concentration 0.075%) 51.70%±5.99%; (CCl4 concentration 0.1%) 28.06%±2.29%; (CCl4 concentration 0.15%) 2.67%±0.25%; (CCl4 concentration 0.2%) 2.46%±0.63%. The “half-maximal inhibitory concentration (IC50) for hepatocytes” value (estimated from viability at 24 h) is recorded as 0.075%.
